The values that follow come from patent US12304897B2, “15-PGDH inhibitors” (KYORIN PHARMACEUTICAL CO., LTD., priority 2019, dated 2025).

Each structure is given as a SMILES string. Some results are limits rather than exact numbers.

The experiment deals with recombinant human 15-PGDH (Homo sapiens (Human), UniProt P15428). Nature of the experiment: 15-PGDH enzyme inhibition test. Format: biochemical. The following applies: 4 nM recombinant human 15-PGDH, 30 μM PGE2, 1 mM NAD+, fluorescence 340/440 nm after 60 min. Here is the method: 15-PGDH Enzyme Inhibition Test
Chain of recombinant human 15-PGDH (P15428 whole entry): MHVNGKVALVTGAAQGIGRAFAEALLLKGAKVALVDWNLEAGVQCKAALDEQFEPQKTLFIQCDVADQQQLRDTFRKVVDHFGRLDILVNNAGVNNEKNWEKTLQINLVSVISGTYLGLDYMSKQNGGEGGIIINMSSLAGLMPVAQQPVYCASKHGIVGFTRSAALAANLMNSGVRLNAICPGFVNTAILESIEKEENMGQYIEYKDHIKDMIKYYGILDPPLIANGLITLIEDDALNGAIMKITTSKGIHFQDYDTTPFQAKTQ
Test compounds and 4 nM recombinant human 15-PGDH (R&D systems) in 50 mM Tris-HCl (pH 8.0) containing 0.01% TWEEN 20 (Sigma) and 0.01% bovine gamma globulin (Sigma) were put into 384 Flat Bottom Black plates (Corning, 3820) and allowed to stand for 12 minutes at room temperature. Then, 30 μM PGE2 (Cayman chemical) and 1 mM NAD^+ (Sigma) were added to start reaction. Sixty minutes after the start of reaction, signals were measured at an excitation wavelength of 340 nm and a fluorescence emission wavelength of 440 nm using Synergy 2 (BioTeck). The intensity of the fluorescent signal obtained when an assay buffer was added in place of the test compounds and NAD^+ was defined as 100% and that obtained with the addition of NAD^+ was defined as 0%.
With `O=C(c1ccc2c(-c3ccc4c(=O)n(CCO)ncc4c3)cccc2c1)N1CCC(F)(F)CC1` [compound 118], the IC50 is less than 3 nM.
In the case of `Cc1ccc2cc(C(=O)N3CCC(F)(F)CC3)ccc2c1-c1cnc2c(c1)CN(C)C2=O` [compound 16], the IC50 fell in the range of 3 to 10 nM.
Then `O=C1NCc2cc(-c3cccc4cc(C(=O)N5CCC(F)(F)CC5)ccc34)cnc21` [compound 82], with less than 3 nM; and `CN1CCC2(CCN(c3cccc4cc(C(=O)N5CCCCC5)ccc34)CC2)C1=O` [compound 79], with not below 10 nM.
Then `O=C(c1ccc2c(-c3ccc4c(=O)[nH]ncc4c3)cccc2c1)N1CC2(CCC2)C1` [compound 121], with less than 3 nM; and `CC1CC2CN(c3cccc4cc(C(=O)N5CCCCC5)ccc34)CCN2C1=O` (centres unmarked) [compound 28], with 3 to 10 nM; and `O=C(c1ccc2c(-c3ccc4c(c3)CN(CCO)C4=O)cccc2c1)N1CCC(F)(F)CC1` [compound 30], with less than 3 nM.
Consider `O=C(c1ccc2c(-c3ccc4c(=O)[nH]ncc4c3)cccc2c1)N1CC=CCC1` [compound 123], for which the IC50 is less than 3 nM.
Take `Cc1n[nH]c(=O)c2ccc(-c3cccc4cc(C(=O)N5CCC(F)(F)CC5)cnc34)cc12` [compound 165]: the IC50 is less than 3 nM.
Turning to `O=C(c1ccc2c(N3CCN4C(=O)CCC4C3)cccc2c1)N1CCCCC1` (centres unmarked) [compound 12], the IC50 lay in the range of 3 to 10 nM.
For `Cn1ncc2cc(-c3cccc4cc(C(=O)N5CCC(F)(F)CC5)ccc34)cnc2c1=O` [compound 17], the IC50 is less than 3 nM.
Turning to `Cn1cnc2cc(-c3cccc4cc(C(=O)N5CCC(F)(F)CC5)cnc34)ccc2c1=O` [compound 164], the IC50 is less than 3 nM.
Then `CNC(=O)c1ccc(-c2cccc3cc(C(=O)N4CCC(F)(F)CC4)ccc23)cc1F` [compound 56], with 3 to 10 nM.
Then `Cn1nc2cc(-c3cccc4cc(C(=O)N5CCC(F)(F)CC5)ccc34)ccn2c1=O` [compound 65], with less than 3 nM; and `Cn1ncc2cc(-c3cccc4cc(C(=O)N5CCC(F)(F)CC5)cnc34)cnc2c1=O` [compound 145], with 3 to 10 nM.
As for `O=C(c1ccc2c(-c3cc4cc[nH]c(=O)c4cn3)cccc2c1)N1CCC(F)(F)CC1` [compound 111], the figure is less than 3 nM.
For `O=C(c1ccc2c(-c3ccc4c(=O)[nH]ncc4c3)cccc2c1)N1CCCC2CC21` (centres unmarked) [compound 124], the IC50 is less than 3 nM.
Then `CN1Cc2cc(-c3cccc4cc(C(=O)N5CCCCC5)ccc34)ccc2C1=O` [compound 37], with less than 3 nM; and `Cn1cnc2c1CCN(c1cccc3cc(C(=O)N4CCCCC4)ccc13)C2` [compound 95], with 3 to 10 nM.
As for `Cn1nc2n(c1=O)CCN(c1cccc3cc(C(=O)N4CCC(F)(F)CC4)ccc13)C2` [compound 75], the figure is less than 3 nM; as for `C[C@@H]1CCCN(C(=O)c2ccc3c(N4CCc5ncccc5C4)cccc3c2)C1` [compound 91], less than 3 nM; as for `CN1Cc2cc(-c3ccnc4cc(C(=O)N5CCC(F)(F)CC5)ccc34)ccc2C1=O` [compound 42], less than 3 nM.
As for `O=C(O)c1ccc(-c2cccc3cc(C(=O)N4CCC(F)(F)CC4)ccc23)cc1F` [compound 68], the figure is less than 3 nM.
On to `O=C(c1ccc2c(-c3ccc4c[nH]c(=O)cc4c3)cccc2c1)N1CCC(F)(F)CC1` [compound 114], for which the IC50 is 3 to 10 nM.
As for `O=C(c1cnc2c(-c3cnc4c(=O)[nH]ccc4c3)cccc2c1)N1CCC(F)(F)CC1` [compound 132], the figure is less than 3 nM; as for `Cn1ccc2cc(-c3cccc4cc(C(=O)N5CCC(F)(F)CC5)cnc34)cnc2c1=O` [compound 146], 3 to 10 nM; as for `Cc1cc(C(N)=O)ccc1-c1cccc2cc(C(=O)N3CCC(F)(F)CC3)ccc12` [compound 53], 3 to 10 nM.
As for `Cc1nc2n(n1)CCN(c1cccc3cc(C(=O)N4CCCCC4)ccc13)C2` [compound 21], the figure is less than 3 nM; as for `COC(=O)c1ccc(-c2cccc3cc(C(=O)N4CCC(F)(F)CC4)ccc23)cc1F` [compound 97], 3 to 10 nM.
